Source: patent US20060069132A1, “Azolecarboxamide herbicides” (priority 2004, published 2006)

How the values were obtained:
barnyardgrass [1] = test: Test A pre-/postemergence herbicide test; type: in vivo, Echinochloa crus-galli
Summary of the method: (§1)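 Plants are held in greenhouse about ten days after treatment, then compared with untreated controls and scored 0 (no effect) to 100 (complete control). Preemergence dosing is a directed soil spray on sown sandy loam; postemergence dosing is spray to runoff at 2–10 cm height.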

morningglory = test: Test A pre-/postemergence herbicide test; type: in vivo, Ipomoea spp.
Summary of the method: as §1

barnyardgrass [2] = test: Test B pre-/postemergence herbicide test; type: in vivo, Echinochloa crus-galli
Summary of the method: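 Response was scored visually 13 to 15 days after treatment against untreated greenhouse controls, 0 meaning no effect and 100 complete control. Formulations (solvent mixture plus surfactant) went onto soil after planting, onto foliage of 1- to 4-leaf plants, and onto 2-leaf plants in a flooded paddy set including rice and barnyardgrass.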

large crabgrass = test: Test B pre-/postemergence herbicide test; type: in vivo, Digitaria sanguinalis
Summary of the method: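 Greenhouse pot assay with simultaneous preemergence (treated seed) and postemergence (2–18 cm seedlings) applications of surfactant-containing, non-phytotoxic solvent formulations. Response scored visually 13–15 days later on a 0–100 scale, 100 meaning complete control.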

woolly cupgrass = test: Test C pre-/postemergence herbicide test; type: in vivo, Eriochloa villosa
Summary of the method: (§2)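 Greenhouse-grown plants were evaluated visually 12 to 14 days after treatment, with 100 meaning complete control and 0 no effect. Application was preemergence, or postemergence at 2 to 18 cm.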

johnsongrass = test: Test C pre-/postemergence herbicide test; type: in vivo, Sorghum halepense
Summary of the method: as §2

lambsquarters = test: Test C pre-/postemergence herbicide test; type: in vivo, Chenopodium album
Summary of the method: as §2

[3] = Postemergence, 250 g ai/ha, 0 to 100 scale, 0 no effect, 100 complete control
[4] = Postemergence, 1000 g ai/ha, 0 to 100 scale, 0 no effect, 100 complete control
[5] = Preemergence, 1000 g ai/ha, visual rating, 0 to 100 scale (0 no effect, 100 complete control)
[6] = preemergence, 250 g ai/ha, visual injury, 0 to 100 scale (0 no effect, 100 complete control)
[7] = Postemergence, 125 g ai/ha, scale 0 (no effect) to 100 (complete control)
[8] = Postemergence, 500 g ai/ha, visual rating after 13 to 15 days, scale 0 (no effect) to 100 (complete control)
[9] = Preemergence, 500 g ai/ha, scale 0 to 100
[10] = 125 g ai/ha, scale 0-100, preemergence
[11] = 250 g ai/ha, scale 0 to 100 (0 no effect, 100 complete control), visual, 12 to 14 days, preemergence
[12] = Postemergence, 500 g ai/ha, scale 0 to 100
[13] = Postemergence, 125 g ai/ha, scale 0 to 100, 0 no effect, 100 complete control
[14] = Postemergence, 250 g ai/ha, scale 0 to 100, 0 no effect, 100 complete control
[15] = Preemergence, 500 g ai/ha, scale 0 to 100, 0 no effect, 100 complete control
[16] = postemergence, 62 g ai/ha, scale 0 to 100
[17] = postemergence, 125 g ai/ha, scale 0 to 100
[18] = Postemergence, 500 g ai/ha, 0 to 100 scale, 0 no effect, 100 complete control
[19] = Postemergence, 2000 g ai/ha, 0 to 100 scale, 0 no effect, 100 complete control
[20] = Preemergence, 500 g ai/ha, visual rating, 0 to 100 scale (0 no effect, 100 complete control)
[21] = Preemergence, 2000 g ai/ha, visual rating, 0 to 100 scale (0 no effect, 100 complete control)
[22] = 500 g ai/ha, visual rating 0-100, 0 no effect, 100 complete control, preemergence
[23] = postemergence, 125 g ai/ha, visual rating, scale 0 (no effect) to 100 (complete control)
[24] = postemergence, 500 g ai/ha, visual rating, scale 0 (no effect) to 100 (complete control)
[25] = preemergence, 125 g ai/ha, 0 to 100 scale, 0 is no effect, 100 is complete control
[26] = 125 g ai/ha, scale 0 (no effect) to 100 (complete control), visual, 12 to 14 days, preemergence
[27] = preemergence, 500 g ai/ha, visual injury, 0 to 100 scale (0 no effect, 100 complete control)
[28] = 125 g ai/ha, 0 is no effect, 100 is complete control, preemergence
[29] = 125 g ai/ha, visual rating, scale 0 (no effect) to 100 (complete control), postemergence
[30] = 500 g ai/ha, visual rating, 0 = no effect, 100 = complete control, preemergence
[31] = postemergence, 500 g ai/ha, scale 0 to 100, 0 is no effect, 100 is complete control
[32] = 62 g ai/ha, preemergence, scale 0 to 100
[33] = 250 g ai/ha, scale 0-100, preemergence
[34] = 500 g ai/ha, scale 0 to 100 (0 no effect, 100 complete control), visual, 12 to 14 days, preemergence

SMILES: CCNC(=O)c1cccc(NC(=O)c2cc(C(C)(C)C)nn2CC(F)(F)F)c1 [Compound 31]
- Barnyardgrass plant response rating (barnyardgrass [1]; [3]): 65
- Plant response rating, Barnyardgrass (barnyardgrass [1]; [4]): 75
- Barnyardgrass plant response rating (barnyardgrass [1]; [5]): 80
- Barnyardgrass plant response rating (barnyardgrass [1]; [6]): 40
- Morningglory plant response rating (morningglory; [3]): 5
- Plant response rating, Morningglory (morningglory; [4]): 20
- Morningglory plant response rating (morningglory; [5]): 55
- Morningglory plant response rating (morningglory; [6]): 0
- Barnyardgrass plant response rating (barnyardgrass [2]; [7]): 10
- Plant response rating, Barnyardgrass (barnyardgrass [2]; [8]): 50
- Barnyardgrass plant response rating (barnyardgrass [2]; [9]): 90
- Crabgrass, Large plant response rating (large crabgrass; [7]): 20
- Plant response rating, Crabgrass, Large (large crabgrass; [8]): 30
- Crabgrass, Large plant response rating (large crabgrass; [9]): 50
- Plant response rating (0 = no effect, 100 = complete control), Cupgrass, Woolly (woolly cupgrass; 62 g ai/ha, preemergence): 0
- Plant response rating, Cupgrass, Woolly (woolly cupgrass; [10]): 0
- Plant response rating, Cupgrass, Woolly (woolly cupgrass; [11]): 30
- Cupgrass, Woolly plant response rating (woolly cupgrass; [12]): 60
- Plant response rating, Cupgrass, Woolly (woolly cupgrass; [13]): 30
- Plant response rating, Cupgrass, Woolly (woolly cupgrass; [14]): 40
- Cupgrass, Woolly plant response rating (woolly cupgrass; [15]): 60
- Plant response rating, Cupgrass, Woolly (woolly cupgrass; [16]): 30
- Plant response rating (0 = no effect, 100 = complete control), Johnsongrass (johnsongrass; 62 g ai/ha, preemergence): 0
- Plant response rating, Johnsongrass (johnsongrass; [10]): 30
- Plant response rating, Johnsongrass (johnsongrass; [11]): 70
- Johnsongrass plant response rating (johnsongrass; [12]): 30
- Plant response rating, Johnsongrass (johnsongrass; [13]): 20
- Plant response rating, Johnsongrass (johnsongrass; [14]): 30
- Johnsongrass plant response rating (johnsongrass; [15]): 90
- Plant response rating, Johnsongrass (johnsongrass; [16]): 20
- Plant response rating (0 = no effect, 100 = complete control), Lambsquarters (lambsquarters; 62 g ai/ha, preemergence): 90
- Plant response rating, Lambsquarters (lambsquarters; [10]): 100
- Plant response rating, Lambsquarters (lambsquarters; [11]): 100
- Lambsquarters plant response rating (lambsquarters; [12]): 90
- Plant response rating, Lambsquarters (lambsquarters; [14]): 90
- Lambsquarters plant response rating (lambsquarters; [15]): 100
- Plant response rating, Lambsquarters (lambsquarters; [17]): 80
- Plant response rating, Lambsquarters (lambsquarters; [16]): 80

SMILES: C#CCNC(=O)c1cccc(NC(=O)c2cc(C(C)(C)C)nn2CC)n1 [Compound 147]
- Barnyardgrass plant response rating (barnyardgrass [1]; [18]): 55
- Plant response rating, Barnyardgrass (barnyardgrass [1]; [19]): 95
- Barnyardgrass plant response rating (barnyardgrass [1]; [20]): 40
- Barnyardgrass plant response rating (barnyardgrass [1]; [21]): 95
- Morningglory plant response rating (morningglory; [18]): 20
- Plant response rating, Morningglory (morningglory; [19]): 30
- Morningglory plant response rating (morningglory; [20]): 20
- Morningglory plant response rating (morningglory; [21]): 45
- Plant response rating, Barnyardgrass (barnyardgrass [2]; [22]): 90
- Barnyardgrass plant response rating (barnyardgrass [2]; [23]): 20
- Barnyardgrass plant response rating (barnyardgrass [2]; [24]): 30
- Plant response rating, Barnyardgrass (barnyardgrass [2]; [25]): 70
- Plant response rating, Crabgrass, Large (large crabgrass; [22]): 100
- Crabgrass, Large plant response rating (large crabgrass; [23]): 20
- Crabgrass, Large plant response rating (large crabgrass; [24]): 70
- Plant response rating, Crabgrass, Large (large crabgrass; [25]): 90
- Plant response rating (0 = no effect, 100 = complete control), Cupgrass, Woolly (woolly cupgrass; 62 g ai/ha, preemergence): 0
- Plant response rating, Cupgrass, Woolly (woolly cupgrass; [26]): 10
- Plant response rating, Cupgrass, Woolly (woolly cupgrass; [11]): 10
- Cupgrass, Woolly plant response rating (woolly cupgrass; [12]): 30
- Plant response rating, Cupgrass, Woolly (woolly cupgrass; [14]): 10
- Cupgrass, Woolly plant response rating (woolly cupgrass; [15]): 60
- Plant response rating, Cupgrass, Woolly (woolly cupgrass; [17]): 0
- Plant response rating, Cupgrass, Woolly (woolly cupgrass; [16]): 0
- Plant response rating (0 = no effect, 100 = complete control), Johnsongrass (johnsongrass; 62 g ai/ha, preemergence): 0
- Plant response rating, Johnsongrass (johnsongrass; [26]): 40
- Johnsongrass plant response rating (johnsongrass; [12]): 10
- Plant response rating, Johnsongrass (johnsongrass; [14]): 10
- Johnsongrass plant response rating (johnsongrass; [15]): 80
- Plant response rating, Johnsongrass (johnsongrass; [16]): 0
- Plant response rating (0 = no effect, 100 = complete control), Lambsquarters (lambsquarters; 62 g ai/ha, preemergence): 70
- Plant response rating, Lambsquarters (lambsquarters; [26]): 90
- Lambsquarters plant response rating (lambsquarters; [12]): 100
- Plant response rating, Lambsquarters (lambsquarters; [14]): 100
- Lambsquarters plant response rating (lambsquarters; [15]): 100
- Plant response rating, Lambsquarters (lambsquarters; [17]): 100
- Plant response rating, Lambsquarters (lambsquarters; [16]): 90

SMILES: CCN(CC)C(=O)c1cccc(NC(=O)c2cc(C(C)(C)C)nn2C)n1 [Compound 314]
- Barnyardgrass plant response rating (barnyardgrass [1]; [18]): 35
- Plant response rating, Barnyardgrass (barnyardgrass [1]; [19]): 75
- Barnyardgrass plant response rating (barnyardgrass [1]; [21]): 90
- Barnyardgrass plant response rating (barnyardgrass [1]; [27]): 50
- Morningglory plant response rating (morningglory; [18]): 30
- Plant response rating, Morningglory (morningglory; [19]): 50
- Morningglory plant response rating (morningglory; [21]): 30
- Morningglory plant response rating (morningglory; [27]): 10
- Plant response rating (0 to 100 scale), Barnyardgrass (barnyardgrass [2]; [28]): 10
- Barnyardgrass plant response rating (barnyardgrass [2]; [29]): 10
- Plant response rating, Barnyardgrass (barnyardgrass [2]; [30]): 90
- Barnyardgrass plant response rating (barnyardgrass [2]; [31]): 30
- Plant response rating (0 to 100 scale), Crabgrass, Large (large crabgrass; [28]): 20
- Crabgrass, Large plant response rating (large crabgrass; [29]): 10
- Plant response rating, Crabgrass, Large (large crabgrass; [30]): 30
- Crabgrass, Large plant response rating (large crabgrass; [31]): 20
- Plant response rating, Cupgrass, Woolly (woolly cupgrass; [32]): 0
- Plant response rating, Cupgrass, Woolly (woolly cupgrass; [26]): 0
- Plant response rating, Cupgrass, Woolly (woolly cupgrass; [33]): 0
- Plant response rating, Cupgrass, Woolly (woolly cupgrass; [34]): 20
- Plant response rating, Johnsongrass (johnsongrass; [32]): 0
- Plant response rating, Johnsongrass (johnsongrass; [26]): 20
- Plant response rating, Johnsongrass (johnsongrass; [33]): 70
- Plant response rating, Johnsongrass (johnsongrass; [34]): 90
- Plant response rating, Lambsquarters (lambsquarters; [32]): 0
- Plant response rating, Lambsquarters (lambsquarters; [26]): 10
- Plant response rating, Lambsquarters (lambsquarters; [33]): 30
- Plant response rating, Lambsquarters (lambsquarters; [34]): 85
